These results are taken from US20060160883A1, “Regulation of immune system action in mammals through use of a multi-tiered model of immune system function” (priority 2005, published 2006).

For the series, the system named is osteosarcoma (bone cancer) and chondrosarcoma (cartilage cancer). The experiment in a line: Treatment of one dog (Maggie, 12 year old Border Collie) with bone and cartilage cancer after leg amputation. The series is classed as in vivo. An excerpt:
The mammal involved is Maggie, a 12 year old, neutered female Border Collie. • 1) The IDO-producing diseases or conditions in this case are osteosarcoma (bone cancer) and chondrosarcoma (cartilage cancer). • 2) There are three parts to treatment in this model. There must be a choice or choices from Treatment Part A. There may be choice(s) from Treatment Part B and/or Part C. • A) The goal of Treatment Part A is to “turn off” IDO and/or its actions. The choice I used in this case was an antioxidant to compete with IDO for O2. • The antioxidant I used was ascorbic acid in the form of Ester-C, a licensed trademark of Zila Neutraceuticals, Inc. It is manufactured under U.S. Pat. Nos. 4,822,816 and 5,070,085. It was purchased at Sam's Club and the bottle contained 500 500 mg caplets with Rose Hips.
The doseage was bowel tolerance level which in this case was 3-4½ grams per day. • B) The goal of Treatment Part B is to build up the immune system. […] This is not, however, seen as a cure for either type of cancer she had. • Another choice was pain medication. • Yet another choice was antibiotics after the surgery to prevent infection while she healed. • My other treatment of choice was Vitamin D3. I purchased KAL brand D-400. (This stands for 400 IUs of Vitamin D3). I purchased them at several health food stores. There were 100 softgels per bottle and each softgel contained 400 IUs of D3 as well as 600 IUs of Vitamin A. They were manufactured by Nutraceutical Corp. for Makers of KAL, Inc. • Maggie's dosage most of the time was 6 softgels (2400 IUs) per day. For one week in November, she had no Vitamin D3, then after that, 10 (4000 IUs) per day for a short time, then 8 (3200 IUs) per day. • The total cost per month for Ester-C and D-400 was approximately $25.
Also, on July 12, she started taking Vitamin D3. (She started with 2 per day, and by July 14th, was taking 6 per day. She took 3 in the morning and 3 at night from then until October 30.) The hope was that the D3 could buy some time.
August 25, in addition to Vitamin D3, Maggie started taking Vitamin C (Ester-C caplets). That evening, she was given 3 caplets (one and one half grams).
The morning of August 26, she was given 4 caplets (2 grams). The goal was to find her bowel tolerance level.
Treatment resumed, this time with 9 softgels of Vitamin D3 per day and 9 caplets of Ester-C per day. That afternoon, […] developed a fever that lasted until afternoon of the next day.
A week later, she was taking 7 Ester-C and 10 D3 per day, but the D3 was dropped to 8 per day by November 21.

Regarding `O=C1O[C@H]([C@@H](O)CO)C(O)=C1O` [Vitamin C, ascorbic acid], the “overall effect of the treatment on the cancer (autopsy findings)” value (Ester-C plus Vitamin D3 after amputation, only microscopic cells and clusters in liver, bone tumor area being replaced) is given as “seemed to be working on the cancer”. The “alkaline phosphatase level (blood test)” value was determined as 2230 (November 3, Ester-C at bowel tolerance since August 25 in addition to Vitamin D3 (D3 stopped October 30), before treatment 3175) and 1669 (November 5, Vet Emergency Hospital (different lab), Ester-C plus Vitamin D3 treatment). For the same molecule, the “lung and lower abdominal x-rays, sign of cancer” value (November 5, Ester-C plus Vitamin D3 treatment) was “no sign of cancer”. For the same molecule, for the setting “after death December 18, Ester-C plus Vitamin D3 treatment”, the “autopsy, cancer in lungs” value is reported as “no cancer in her lungs”. In addition, where the note is “evening of August 26, one day after start of Ester-C (3 then 4 caplets) in addition to Vitamin D3”, the “alertness, behaviour” value was “alert and awake”.

Take `C=C1CC[C@H](O)C/C1=C/C=C1\CCC[C@]2(C)[C@@H]([C@H](C)CCCC(C)C)CC[C@@H]12` [Vitamin D3]: the “alkaline phosphatase level (blood test)” value (August 15, Vitamin D3 6 softgels (2400 IUs) per day since July 12 after amputation, level before treatment 3175, normal range 5-131) came out at 3113. Also, the “lung X-rays” value (August 15, on Vitamin D3 after amputation) is “no lung cancer tumors”. Also, for the setting “November 3, after 6 softgels (2400 IUs) per day July 14 to October 30”, the “signs of Vitamin D3 overdose (blood test)” value is given as “no signs of Vitamin D3 overdose”. Further, the “calcium deposits in organs on x-ray (a symptom of D3 overdose)” value (November 5) is “no calcium deposits in any organs”.
